Measured values taken from PubChem BioAssay AID1996.
In brackets after ≈: the same amount, converted by molar mass.

conditions: buffer; pH 7.4; 200.0 µM

Row | solubility kinetic | SMILES
1 | 45.6 µg/mL (≈ 138 µM) | COC(=O)c1ccc(S(=O)(=O)N2CCN(CCO)CC2)n1C
2 | 22.2 µg/mL (≈ 66 µM) | O=C(CN1C(=O)c2ccccc2S1(=O)=O)NCc1cccs1
3 | 39.7 µg/mL (≈ 117 µM) | Cc1ccc(NC(=O)c2ccc(F)cc2F)cc1NS(C)(=O)=O
4 | > 40.7 µg/mL | CC12COC3(C(=O)Nc4ccccc4)CC1CCC32C (stereo unspecified)
5 | 9.9 µg/mL (≈ 30.8 µM) | COc1ccc(/C=C/C(=O)NCCc2nc3ccccc3[nH]2)cc1
6 | 42.1 µg/mL (≈ 148 µM) | CCN(Cc1ccncc1)C(=S)NCc1ccccc1
7 | 38 µg/mL (≈ 147 µM) | COc1ccccc1C(C#N)c1cccc(Cl)n1 (stereo unspecified)
8 | > 43.8 µg/mL | Cn1c(NNC(=O)c2ccccc2F)cc(=O)n(C)c1=O
9 | > 44.5 µg/mL | Cc1ccc(S(=O)(=O)NC2=NCN(C(C)C)CN2)cc1
10 | > 41.4 µg/mL | Cc1ccc(CONC(=O)c2ccccc2Cl)cc1
11 | 1.9 µg/mL (≈ 6.39 µM) | CC(C)Cc1ccc(C(C)C(=O)Nc2ccccc2O)cc1 (stereo unspecified)
12 | > 42.1 µg/mL | CCc1nccn1Cc1cc(C=O)ccc1OC.Cl
13 | 29.9 µg/mL (≈ 121 µM) | N#CCNC1CC(=O)N(c2ccc(F)cc2)C1=O (stereo unspecified)
14 | > 30.5 µg/mL | Nc1c(C(=O)O)cnn1-c1ccccc1
15 | > 38.9 µg/mL | CC(=O)OCC(=O)Nc1ccccc1OC(F)F
16 | 7.7 µg/mL (≈ 29 µM) | Cc1noc(C)c1C(=O)Nc1sccc1C(N)=O
17 | 37.7 µg/mL (≈ 147 µM) | CN(C)C(=O)c1cc(C(=O)Cc2ccccc2)c[nH]1
18 | > 41.9 µg/mL | CSCCC(=O)Nc1nc(-c2ccccn2)cs1
19 | 9.6 µg/mL (≈ 33.9 µM) | Cc1cccc(OCc2nc(C#N)c(N3CCCC3)o2)c1
20 | < 0.3 µg/mL | CCCCC(=O)NC(=O)NC(c1ccccc1)c1ccccc1

Row | solubility kinetic | SMILES
21 | > 50.7 µg/mL | Cl.O=C(OCCN1CCCCC1)C1(c2ccccc2)CCCC1
22 | < 0.2 µg/mL | Cc1cc(Oc2ncccc2[N+](=O)[O-])c2cc(Cl)ccc2n1
23 | 42.4 µg/mL (≈ 139 µM) | O=C(COCc1cc(-c2ccco2)on1)NC1CCCCC1
24 | 49.3 µg/mL (≈ 145 µM) | CCN1C(=O)/C(=C\N(C)C)S/C1=N\S(=O)(=O)c1ccccc1
25 | > 54.2 µg/mL | N#Cc1ccccc1S(=O)(=O)N1CCN(C(=O)C2CCCCC2)CC1
26 | > 49.1 µg/mL | CCn1c(SCC(=O)Nc2nccc(C)n2)nc2ccccc21
27 | 0.8 µg/mL (≈ 3.2 µM) | CCOc1ccc(-c2cnc3ccccc3n2)cc1
28 | > 54.5 µg/mL | COC(=O)C(NC(=O)c1ccccc1C(=O)O)c1ccc2ccccc2c1 (stereo unspecified)
29 | 0.6 µg/mL (≈ 1.88 µM) | CCCN1CCN(CC(=O)Nc2nc3ccccc3s2)CC1
30 | > 42.3 µg/mL | Nc1c(Br)c(=O)[nH]c(=O)n1-c1ccccc1
31 | > 45.8 µg/mL | CCC(=O)Nc1ccc(S(=O)(=O)Nc2ccccn2)cc1
32 | 1.4 µg/mL (≈ 4.06 µM) | O=C(Nc1ccc(N2CCCC2)cc1)c1ccc(Br)cc1
33 | < 0.7 µg/mL | CCOc1ccccc1N=Cc1c(O)c2ccccc2oc1=O
34 | 1.9 µg/mL (≈ 6.41 µM) | O=C(CSc1ccc([N+](=O)[O-])cn1)Nc1nccs1
35 | > 39.6 µg/mL | CNC(=O)CSc1nnc(-c2cnccn2)n1C
36 | 29.5 µg/mL (≈ 122 µM) | COc1ccc(CC(CN)c2ccccc2)cc1 (stereo unspecified)
37 | 1 µg/mL (≈ 4.18 µM) | Cc1ccc(Cn2c(=O)oc3ccccc32)cc1
38 | > 50.5 µg/mL | CCC(=O)N(Cc1cc2ccccc2[nH]c1=O)c1ccc(OC)cc1
39 | > 44.6 µg/mL | Cc1cccnc1NC(=O)CCn1c(=O)oc2ccccc21
40 | > 52.3 µg/mL | COc1ccc(Cl)cc1NC(=O)CN(C)C(=O)/C=C/c1ccco1

Row | solubility kinetic | SMILES
41 | > 41.6 µg/mL | CC(=O)Nc1c2c(nn1-c1ccc(F)cc1)CSC2
42 | > 42.4 µg/mL | O=C(NCCS(=O)(=O)N1CCCC1)c1ccccc1
43 | 14.8 µg/mL (≈ 64.3 µM) | S=c1nccc(-c2ccc3c(c2)CCO3)[nH]1
44 | 2.9 µg/mL (≈ 10.2 µM) | COc1ccccc1-n1c(-c2ccc(F)cc2)coc1=O
45 | 14.4 µg/mL (≈ 51 µM) | Cc1ccccc1NC(=O)Cn1c(=O)oc2ccccc21
46 | < 0.4 µg/mL | O=C(Nc1ccc(Br)cc1)C1Cc2ccccc2O/C1=N\O (stereo unspecified)
47 | 8.3 µg/mL (≈ 24.5 µM) | C=CCC1(CC=C)CCCN1Cc1nc(COc2ccccc2)no1
48 | < 0.3 µg/mL | CN(Cc1cccc([N+](=O)[O-])c1)Cc1cccc2ccccc12
49 | > 51 µg/mL | O=C(O)C1C2CCC(O2)C1C(=O)Nc1ccccc1Br (stereo unspecified)
50 | 30.4 µg/mL (≈ 149 µM) | COC(=O)c1sc(SC)nc1N
51 | 3 µg/mL (≈ 9.11 µM) | COc1ccc2nc(NC(=O)c3ccccc3[N+](=O)[O-])sc2c1
52 | 14.1 µg/mL (≈ 40.6 µM) | CC(C)(C)c1ccc(C(=O)Nc2ccc(Oc3cccnc3)nc2)cc1
53 | 9.5 µg/mL (≈ 30.9 µM) | Cc1ccc(CONC(=O)c2ccc(OC(F)F)cc2)cc1
54 | > 28.1 µg/mL | c1ccc(Sc2ccccn2)cc1
55 | 38.3 µg/mL (≈ 130 µM) | Cc1cc(N)nc(SCC(=O)N2C(C)CCCC2C)n1 (stereo unspecified)
56 | 31.4 µg/mL (≈ 101 µM) | COc1ccc2c(CC(=O)Nc3ccccc3OC)coc2c1
57 | 42.4 µg/mL (≈ 139 µM) | O=C(O)C1CCCCC1C(=O)NC1C2CC3CC(C2)CC1C3 (stereo unspecified)
58 | 8.6 µg/mL (≈ 28.5 µM) | CCc1noc(C)c1C(=O)Nc1nc2c(C)cccc2s1
59 | 34.3 µg/mL (≈ 106 µM) | COc1cc(NC(=O)CCN2CC(C)OC(C)C2)cc(OC)c1 (stereo unspecified)

Row | SMILES | solubility kinetic
60 | O=[N+]([O-])c1cnc2ccc3ccccc3c2c1 | 3.1 µg/mL (≈ 13.8 µM)
61 | CC(Cc1cccs1)NCc1ccccc1 (stereo unspecified) | 22.3 µg/mL (≈ 96.4 µM)
